In series [1] the target is T1, PD1-PDL1 interaction (Homo sapiens, UniProt Q9NZQ7).
T1 construct: endogenous in cells; host or cells: MDA-MB-231 tumor cells (PD-L1); primary splenocytes of C57BL/6 mice (PD-1)
As to the kind of experiment: CFSE mouse splenocyte proliferation assay (FACS), co-culture with MDA-MB-231 tumor cells expressing PD-L1. The class given is cell-based. Conditions: for % Splenocyte proliferation: mouse splenocytes stimulated with anti-CD3/CD28, co-culture with MDAMB231 over expressing PDL1, 72 hrs, background 13, stimulated splenocytes 72. As to the method: The effect of PD1 derived peptides on mouse splenocyte proliferation inhibited by PDL1/PDL2 or tumor cells expressing PDL; analyzed by Fluorescence Activated Cell Shorting (FACS) method using CFSE labeling. Mouse splenocytes harvested from 6-8 weeks old C57 BL6 mice; RPMI 1640 (GIBCO, Cat #11875); DMEM with high glucose (GIBCO, Cat # D6429); Fetal Bovine Serum [Hyclone, Cat # SH30071.03]; Penicillin (10000 unit/ml)-Streptomycin (10,000 μg/ml) Liquid (GIBCO, Cat #15140-122); MEM Sodium Pyruvate solution 100 mM (100×), Liquid (GIBCO, Cat #11360); Nonessential amino acid (GIBCO, Cat #11140); L-Glutamine (GIBCO, Cat #25030); Anti-CD3 antibody (eBiosciences—16-0032); Anti-CD28 antibody (eBiosciences—16-0281); ACK lysis buffer (1 mL) (GIBCO, Cat #—A10492); Histopaque (density-1.083 gm/ml) (SIGMA 10831); Trypan blue solution (SIGMA-T8154); 2 ml Norm Ject Luer Lock syringe—(Sigma 2014-12); 40 μm nylon cell strainer (BD FALCON 35230); Hemacytometer (Bright line-SIGMA Z359629); FACS Buffer (PBS/0.1% BSA): Phosphate Buffered Saline (PBS) pH 7.2 (HiMedia TS1006) with 0.1% Bovine Serum Albumin (BSA) (SIGMA A7050) and sodium azide (SIGMA 08591); 5 mM stock solution of CFSE: CFSE stock solution was prepared by diluting lyophilized CFSE with 180 μL of Di methyl Sulfoxide (DMSO C2H6SO, SIGMA-D-5879) and aliquoted in to tubes for further use. Working concentrations were titrated from 10 μM to 1 μM. (eBioscience—650850-85); 0.05% Trypsin and 0.02% EDTA (SIGMA 59417C); 96-well format ELISA plates (Corning CLS3390); BD FACS caliber (E6016). Splenocytes harvested in a 50 ml falcon tube by mashing spleen in a 40 μm cell strainer were further treated with 1 ml ACK lysis buffer for 5 mins at room temperature. After washing with 9 ml of RPMI complete media, cells were re-suspended in 3 ml of 1×PBS in a 15 ml tube. 3 ml of histopaque was added very carefully to the bottom of the tube without disturbing overlaying splenocyte suspension. Spin the tube at 800×g for 20 mins at room temperature. Opaque layer of lymphocytes was collected carefully without disturbing/mixing any of the layers. Cells were washed twice with cold 1×PBS followed by total cell counting using trypan blue exclusion method and used further for cell based assays. Tumor cells were cultured and maintained in high glucose complete DMEM media. 1×10^5 tumor cells were plated in 96 well plates along with required conc. of PD1 derived peptide and allowed to adhere at 37° C. for 4 hrs. 1×10^6 cells/ml of harvested splenocytes were treated with 5 μM of CFSE in pre warmed 1×PBS/0.1% BSA solution for 10 mins at 37° C. Excess CFSE was quenched using 5 volumes of ice-cold culture media to the cells and incubated on ice for 5 mins. CFSE labeled splenocytes were further given three washes with ice cold complete DMEM media. CFSE labeled 1×10^5 splenocytes were added to above wells containing tumors cells and PD1 peptides. Splenocytes were stimulated with anti-CD3 and anti-CD28 antibody (1 μg/ml each) and the co-culture was further incubated for 72 hrs at 37° C. with 5% CO2. Cells were harvested and washed thrice with ice cold FACS buffer and % proliferation was analyzed using a FACS caliber with 488 nm excitation and 521 nm emission filters. Each experimental condition was carried out in triplicates and each experiment at least carried out three times % splenocyte proliferation was analyzed using cell quest FACS program and fold induction was calculated by normalizing individual values to % background proliferation Fold Induction=% splenocyte proliferation/% background proliferation Stimulated splenocytes: Splenocytes+anti-CD3/CD28 stimulation Background proliferation: Splenocytes+anti-CD3/CD28+PDL or Tumor Compound effect was examined by adding required conc. of compound to anti-CD3/CD28 stimulated splenocytes in presence of ligand (PDL-1/PDL-2) or tumor cells.

The subject of series [2] is B16F10 cells. Nature of the series: In vivo efficacy on lung metastasis in B16F10 subcutaneous melanoma model. Conditions: C57/Black6 female mice, 5 mg/kg subcutaneously once daily for fourteen days. As to the method: C57/Black6 female mice (Aurigene, Bangalore, India) aged 6 to 8 weeks were used for the experiment. Animals were acclimatized for a week in the experimental room before conducting the experiment. On day 0, B16F10 cells grown in DMEM containing 10% FBS at 70 to 75% confluency were harvested and 0.1×10^6 cells per animal were injected to mice subcutaneously on the right flank region. On day 1, peptide (Compound #2) at 5 mg/kg dose dissolved in PBS, pH 7.4 was dosed subcutaneously at the rate of 10 ml/kg volume for fourteen days once daily. Vehicle control group of mice received only saline. Taxol at 5 MPK (i.p) with qd dosing was used as reference in this study. Each group consisted of ten animals. Body weight and clinical signs were recorded daily. […] At the end of 14 days of dosing period lung was harvested and analysed for metastasis by counting the black nodules.

The mark [3] stands for this setting: % splenocyte proliferation/% background proliferation, MDAMB231 over expressing PDL1, background 1.0, stimulated splenocytes 5.5.

Read-outs that look alike come from different tables or passages of the source. Where a SMILES comes first, the peptide text is derived from it. Bridges are numbered along the chain shown (N, C = ends). [ ]: non-standard residue; d: D form. ξ: configuration not given here. ξE = NC(CCC(=O)O)C(=O)O; ξQ = NC(=O)CCC(N)C(=O)O; ξK = NCCCCC(N)C(=O)O; Ahx = NCCCCCC(=O)O; ξS = NC(CO)C(=O)O

T1 sequence (Q9NZQ7 19-290): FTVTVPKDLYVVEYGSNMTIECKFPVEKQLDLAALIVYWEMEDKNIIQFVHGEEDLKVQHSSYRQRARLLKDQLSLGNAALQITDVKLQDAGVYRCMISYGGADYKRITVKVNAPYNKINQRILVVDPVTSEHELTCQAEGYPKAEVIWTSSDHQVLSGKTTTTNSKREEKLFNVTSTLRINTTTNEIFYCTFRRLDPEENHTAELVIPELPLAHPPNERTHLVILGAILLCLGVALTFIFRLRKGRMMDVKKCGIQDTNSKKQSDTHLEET

`C[C@@H](O)[C@@H]1NC(=O)[C@H](CC(N)=O)NC(=O)C(CO)NC(=O)C(CCC(N)=O)NC(=O)CCCCCNC(=O)[C@H](Cc2ccccc2)NC(=O)[C@H](CO)NC(=O)[C@H](CCC(=O)O)NC(=O)[C@H](CO)NC1=O` (stereo partly shown) [Compound 15] (cyclo([Ahx][ξQ][ξS]NTSESF)): in series [1], the Fold induction stood at 4 and the “% Splenocyte proliferation” value worked out at 53%.
As to `CC[C@H](C)[C@H](N)C(=O)NC1CCC(=O)NCCCCC(C(=O)N[C@H](C(=O)NC(CCC(N)=O)C(=O)O)C(C)C)NC(=O)[C@H](CO)NC(=O)[C@H](CCSC)NC1=O` (stereo partly shown) [Compound 12] (H-I[ξE]MS[ξK]V[ξQ]-OH; lactam 2-5), the Fold induction in series [1] (setting [3]) was determined as 3.0. Besides, the “% Splenocyte proliferation” value in series [1] is on record as 39%.
For the molecule `C[C@@H](O)[C@@H]1NC(=O)[C@@H](NC(=O)[C@@H](N)CO)CCC(=O)NCCCC[C@@H](C(=O)N[C@@H](CO)C(=O)N[C@@H](Cc2ccccc2)C(N)=O)NC(=O)[C@H](CO)NC1=O` [Compound 2] (H-SETSKSF-NH2; lactam 2-5), the Fold induction in series [1] (setting [3]) was determined as 4.3. Also, in series [1], the “% Splenocyte proliferation” value was determined as 57%. Besides, in series [2], the “body weight reduction during the period of dosing” value was “no body weight reduction” and the clinical signs result is given as “no clinical signs observed”.
In series [1] (setting [3]), `CC[C@H](C)[C@H](N)C(=O)NC1CCC(=O)NCCCCC(C(=O)N[C@@H](CO)C(=O)NC(CCC(N)=O)C(=O)O)NC(=O)[C@H](CO)NC(=O)[C@H](CCSC)NC1=O` (stereo partly shown) [Compound 11] (H-I[ξE]MS[ξK]S[ξQ]-OH; lactam 2-5; N-terminus assumed) showed a Fold induction of 4.2. For the same molecule, the “% Splenocyte proliferation” value in series [1] stood at 54%.
`C[C@@H](O)[C@@H]1NC(=O)[C@H](CCC(=O)O)NC(=O)C(CO)NC(=O)CCCCCNC(=O)C(CCC(N)=O)NC(=O)[C@H](Cc2ccccc2)NC(=O)[C@H](CO)NC(=O)[C@H](CCCCN)NC(=O)[C@H](CO)NC1=O` (stereo partly shown) [Compound 17] (cyclo([Ahx][ξS]ETSKSF[ξQ])) showed a Fold induction in series [1] (setting [3]) of 3.2. Moreover, the “% Splenocyte proliferation” value in series [1] worked out at 42%.
For `C[C@@H](O)[C@@H]1NC(=O)C(NC(=O)[C@@H](N)CCC(=O)O)CCC(=O)NCCCCC(C(=O)N[C@@H](CO)C(=O)N[C@@H](Cc2ccccc2)C(N)=O)NC(=O)[C@H](CO)NC1=O` (stereo partly shown) [Compound 4] (H-E[ξE]TS[ξK]SF-NH2; lactam 2-5; N-terminus assumed) the same measures were 2.8 and 36%.
In turn, `CC[C@H](C)[C@H](N)C(=O)NC1CCC(=O)NCCCCC(C(=O)N[C@@H](CO)C(=O)N[C@@H](Cc2ccccc2)C(N)=O)NC(=O)[C@H](CO)NC(=O)[C@H]([C@@H](C)O)NC1=O` (stereo partly shown) [Compound 6] (H-I[ξE]TS[ξK]SF-NH2; lactam 2-5; N-terminus assumed) yielded a Fold induction in series [1] (setting [3]) of 4.2. Moreover, the “% Splenocyte proliferation” value in series [1] is given as 55%.
As for `CC(C)[C@H](NC(=O)C1CCCCNC(=O)CCC(NC(=O)[C@@H](N)CO)C(=O)N[C@@H]([C@@H](C)O)C(=O)N[C@@H](CO)C(=O)N1)C(=O)N[C@@H](Cc1ccccc1)C(N)=O` (stereo partly shown) [Compound 7] (H-S[ξE]TS[ξK]VF-NH2; lactam 2-5; N-terminus assumed), in series [1] (setting [3]), the Fold induction came to 4.0. Further, the “% Splenocyte proliferation” value in series [1] was 52%.
As for `C[C@@H](O)[C@@H]1NC(=O)[C@H](CC(N)=O)NC(=O)C(CO)NC(=O)C(CCC(N)=O)NC(=O)[C@H](Cc2ccccc2)NC(=O)[C@H](CO)NC(=O)[C@H](CCC(=O)O)NC(=O)[C@H](CO)NC1=O` (stereo partly shown) [Compound 14] (cyclo(ESF[ξQ][ξS]NTS)), in series [1] (setting [3]), the Fold induction was determined as 4.2. In addition, the “% Splenocyte proliferation” value in series [1] is recorded as 55%.
In series [1] (setting [3]), `C[C@@H](O)[C@@H]1NC(=O)[C@H](CCC(=O)O)NC(=O)C(CO)NC(=O)CCC(C(N)=O)NC(=O)[C@H](Cc2ccccc2)NC(=O)[C@H](CO)NC(=O)[C@H](CCCCN)NC(=O)[C@H](CO)NC1=O` (stereo partly shown) [Compound 20] ([ξS]ETSKSF[ξE]-NH2; lactam N-8) registered a Fold induction of 2.8. Also, in series [1], the “% Splenocyte proliferation” value is given as 36%.
Regarding `C[C@@H](O)[C@@H]1NC(=O)[C@H](CCC(=O)O)NC(=O)C(CO)NC(=O)C(CCC(N)=O)NC(=O)[C@H](Cc2ccccc2)NC(=O)[C@H](CO)NC(=O)[C@H](CCCCN)NC(=O)[C@H](CO)NC1=O` (stereo partly shown) [Compound 16] (cyclo(ETSKSF[ξQ][ξS])), in series [1] (setting [3]), the Fold induction worked out at 2.8. Besides, the “% Splenocyte proliferation” value in series [1] was found to be 36%.
Regarding `C[C@@H](O)[C@@H]1NC(=O)C(NC(=O)[C@@H](N)CO)CCCCNC(=O)CCC(C(=O)N[C@@H](CO)C(=O)N[C@@H](Cc2ccccc2)C(N)=O)NC(=O)[C@H](CO)NC1=O` (stereo partly shown) [Compound 1] (H-S[ξK]TS[ξE]SF-NH2; lactam 2-5), in series [1], the Fold induction is reported as 4.6 and the “% Splenocyte proliferation” value is 60%.
As to `CC[C@H](C)[C@H](NC(=O)[C@H](CO)NC(=O)C1CCCCNC(=O)CCC(NC(=O)[C@@H](N)CO)C(=O)N[C@@H]([C@@H](C)O)C(=O)N[C@@H](CO)C(=O)N1)C(N)=O` (stereo partly shown) [Compound 5] (H-S[ξE]TS[ξK]SI-NH2; lactam 2-5; N-terminus assumed), in series [1] (setting [3]), the Fold induction worked out at 3.2. The “% Splenocyte proliferation” value in series [1] stood at 42%.
